Source: patent publication US6949542B2, “Dihydro-benzo[b][1,4]diazepin-2-one derivatives” (Hoffman-La Roche Inc., priority 2002, dated 2005)

With `CCOc1cc2c(cc1C(F)(F)F)NC(=O)CC(c1cccc(-c3cc(C)nc(C4CC4)c3)c1)=N2` [Example 258, 4-[3-(2-Cyclopropyl-6-methyl-pyridin-4-yl)-phenyl]-7-ethoxy-8-trifluoromethyl-1,3-dihydro-benzo[b][1,4]diazepin-2-one] the melting point was 232 °C.
`O=C1CC(c2cccc(-c3ccnc(CNC4CC4)c3)c2)=Nc2cc(OCC(F)(F)F)c(C(F)(F)F)cc2N1` [Example 379, 4-[3-(2-Cyclopropylaminomethyl-pyridin-4-yl)-phenyl]-7-(2,2,2-trifluoro-ethoxy)-8-trifluoromethyl-1,3-dihydro-benzo[b][1,4]diazepin-2-one] showed a melting point of 150 °C.
In the case of `Cc1cc2c(cc1C(F)(F)F)NC(=O)CC(c1cccc(-c3cc(N(C)C)ncn3)c1)=N2` [Example 332, 4-[3-(6-Dimethylamino-pyrimidin-4-yl)-phenyl]-7-methyl-8-trifluoromethyl-1,3-dihydro-benzo[b][1,4]diazepin-2-one], the melting point is reported as 239 to 242 °C.
Compound `CCOc1ccc2c(c1)N=C(c1cccc(-c3ccncc3)c1)CC(=O)N2` [Example 163, 7-Ethoxy-4-(3-pyridin-4-yl-phenyl)-1,3-dihydro-benzo[b][1,4]diazepin-2-one] has a melting point of 180 to 185 °C.
`O=C1CC(c2cccc(-c3cnccn3)c2)=Nc2cc(Cl)c(Cl)cc2N1` [Example 88, 7,8-Dichloro-4-(3-pyrazin-2-yl-phenyl)-1,3-dihydro-benzo[b][1,4]diazepin-2-one] gave a melting point of 268 °C.
In the case of `Cc1cc(-c2cccc(C3=Nc4ccc(Cl)cc4NC(=O)C3)c2)ccn1` [Example 74, 8-Chloro-4-[3-(2-methyl-pyridin-4-yl)-phenyl]-1,3-dihydro-benzo[b][1,4]diazepin-2-one], the melting point is reported as 215 °C.
With `Cc1cc(-c2cccc(C3=Nc4cc(OCC(F)(F)F)c(C(F)(F)F)cc4NC(=O)C3)c2)ccn1` [Example 114, 4-[3-(2-Methyl-pyridin-4-yl)-phenyl]-7-(2,2,2-trifluoro-ethoxy)-8-trifluoromethyl-1,3-dihydro-benzo[b][1,4]diazepin-2-one] the melting point was 223 °C.
`COCc1cc(-c2cccc(C3=Nc4cc(OCC(F)(F)F)c(C(F)(F)F)cc4NC(=O)C3)c2)ccn1` [Example 400, 4-[3-(2-Methoxymethyl-pyridin-4-yl)-phenyl]-7-(2,2,2-trifluoro-ethoxy)-8-trifluoromethyl-1,3-dihydro-benzo[b][1,4]diazepin-2-one] showed a melting point of 225 °C.
Compound `Cc1nccc(-c2cccc(C3=Nc4cc(Cl)c(Cl)cc4NC(=O)C3)c2)c1C` [Example 144, 7,8-Dichloro-4-[3-(2,3-dimethyl-pyridin-4-yl)-phenyl]-1,3-dihydro-benzo[b][1,4]diazepin-2-one] has a melting point of 219 °C.
In the case of `Cc1cc2c(cc1C(F)(F)F)NC(=O)CC(c1cccc(-c3cc(N)ncn3)c1)=N2` [Example 328, 4-[3-(6-Amino-pyrimidin-4-yl)-phenyl]-7-methyl-8-trifluoromethyl-1,3-dihydro-benzo[b][1,4]diazepin-2-one], the melting point is reported as 201 to 205 °C.
`O=C1CC(c2cccc(-c3cncnc3)c2)=Nc2cc(Cl)c(C(F)(F)F)cc2N1` [Example 95, 7-Chloro-4-(3-pyrimidin-5-yl-phenyl)-8-trifluoromethyl-1,3-dihydro-benzo[b][1,4]diazepin-2-one] gave a melting point of 222 °C.
In the case of `Cc1cc2c(cc1Cl)N=C(c1cccc(-c3ccncc3)c1)CC(=O)N2` [Example 66, 7-Chloro-8-methyl-4-(3-pyridin-4-yl-phenyl)-1,3-dihydro-benzo[b][1,4]diazepin-2-one], the melting point is reported as 236 °C.
`Cc1cc2c(cc1C(F)(F)F)NC(=O)CC(c1cccc(-c3cccnc3C3CC3)c1)=N2` [Example 221, 4-[3-(2-Cyclopropyl-pyridin-3-yl)-phenyl]-7-methyl-8-trifluoromethyl-1,3-dihydro-benzo[b][1,4]diazepin-2-one] gave a melting point of 173 to 175 °C.
`CC(C)CN(C)Cc1cc(-c2cccc(C3=Nc4cc(N(C)CC(C)C)c(C(F)(F)F)cc4NC(=O)C3)c2)ccn1` [Example 395, 7-(Isobutyl-methyl-amino)-4-(3-{2-[(isobutyl-methyl-amino)-methyl]-pyridin-4-yl}-phenyl)-8-trifluoromethyl-1,3-dihydro-benzo[b][1,4]diazepin-2-one] showed a melting point of 190 °C.
Compound `Cc1cc(-c2cccc(C3=Nc4cc(C(F)(F)F)c(Cl)cc4NC(=O)C3)c2)cc(C)n1` [Example 128, 8-Chloro-4-[3-(2,6-dimethyl-pyridin-4-yl)-phenyl]-7-trifluoromethyl-1,3-dihydro benzo[b][1,4]diazepin-2-one] has a melting point of 207 °C.
With `O=C1CC(c2cccc(-c3cccnc3)c2)=Nc2cc(Cl)c(C(F)(F)F)cc2N1` [Example 183, 7-Chloro-4-(3-pyridin-3-yl-phenyl)-8-trifluoromethyl-1,3-dihydro-benzo[b][1,4]diazepin-2-one] the melting point was 226 to 227 °C.
For `Cc1cc(-c2cccc(C3=Nc4cc(Cl)c(Cl)cc4NC(=O)C3)c2)ncn1` [Example 313, 7,8-Dichloro-4-[3-(6-methyl-pyrimidin-4-yl)-phenyl]-1,3-dihydro-benzo[b][1,4]diazepin-2-one], the melting point was 220 to 222 °C.
Work on `O=C1CC(c2cccc(-c3cccnc3)c2)=Nc2cc(N3CCOCC3)c(C(F)(F)F)cc2N1` [Example 188, 7-Morpholin-4-yl-4-(3-pyridin-3-yl-phenyl)-8-trifluoromethyl-1,3-dihydro-benzo[b][1,4]diazepin-2-one] yielded a melting point of 198 to 201 °C.
Work on `CCOc1cc2c(cc1C(F)(F)F)NC(=O)CC(c1cccc(-c3ccnc(C(F)(F)F)c3)c1)=N2` [Example 269, 7-Ethoxy-8-trifluoromethyl-4-[3-(2-trifluoromethyl-pyridin-4-yl)-phenyl]-1,3-dihydro-benzo[b][1,4]diazepin-2-one] yielded a melting point of 251 °C.
For `CCOc1cc2c(cc1C(F)(F)F)NC(=O)CC(c1cccc(-c3cnc(CC)cc3C)c1)=N2` [Example 255, 7-Ethoxy-4-[3-(6-ethyl-4-methyl-pyridin-3-yl)-phenyl]-8-trifluoromethyl-1,3-dihydro-benzo[b][1,4]diazepin-2-one], the melting point was 205 °C.
For `CC(C)c1ccc(-c2cccc(C3=Nc4ccc(C(F)(F)F)cc4NC(=O)C3)c2)cn1` [Example 177, 4-[3-(6-Isopropyl-pyridin-3-yl)-phenyl]-8-trifluoromethyl-1,3-dihydro-benzo[b][1,4]diazepin-2-one], the melting point was 194 °C.
`O=C1CC(c2cccc(-c3cncnc3)c2)=Nc2cc(C(F)(F)F)c(Cl)cc2N1` [Example 111, 8-Chloro-4-(3-pyrimidin-5-yl-phenyl)-7-trifluoromethyl-1,3-dihydro-benzo[b][1,4]diazepin-2-one] gave a melting point of 217 °C.
Work on `O=C1CC(c2cccc(-c3cccnc3)c2)=Nc2ccc(C#Cc3ccccc3)cc2N1` [Example 175, 8-Phenylethynyl-4-(3-pyridin-3-yl-phenyl)-1,3-dihydro-benzo[b][1,4]diazepin-2-one] yielded a melting point of 241 °C.
In the case of `Cc1nccc(-c2cccc(C3=Nc4ccc(C(F)(F)F)cc4NC(=O)C3)c2)c1C` [Example 142, 4-[3-(2,3-Dimethyl-pyridin-4-yl)-phenyl]-8-trifluoromethyl-1,3-dihydro benzo[b][1,4]diazepin-2-one], the melting point is reported as 200 °C.
